Reference: ChEMBL document CHEMBL5034037, “Synthesis, Characterization, and Preclinical Evaluation of a Small-Molecule Prostate-Specific Membrane Antigen-Targeted Monomethyl Auristatin E Conjugate” (J Med Chem, 2021)
Activity calls are given as the source filed them. The rule behind the calls is not given here. *1 amine or outer side, *2 acyl side, *3 side chain or, on linkers, in order; H or OH if unused. Where a SMILES comes first, the peptide text is derived from it. [ ]: non-standard residue; d: D form. The star is where a group is joined. GluureaLys(ε-3-ClBenzyl) = O=C(O)CC[C@H](NC(=O)N[C@@H](CCCCN(Cc1cccc(Cl)c1)*)C(=O)O)C(=O)O; Dolaproine = CO[C@@H]([C@@H]1CCCN1)[C@@H](C)C(=O)O; Dil = CC[C@H](C)[C@H](NC)[C@@H](CC(=O)O)OC; X1 = O=C(CCCc1cn(CCCN[*:1])nn1)[*:2]; PABC = O=C(OCc1ccc(N[*:1])cc1)[*:2]; X2 = C[C@@H](N*)[C@@H](O)c1ccccc1; Cit = NC(=O)NCCC[C@H](N)C(=O)O; Suc = O=C(CCC(=O)[*:2])[*:1]; NMeV = CN[C@H](C(=O)O)C(C)C; Ahx = NCCCCCC(=O)O

Columns and labels:
[1] = Toxicity in rat assessed as morphological changes in diameter of aorta at 150 to 225 microg/kg, iv; format: tissue-based; conditions: in vivo, dose 150-225 µg/kg
[2] = Clearance in rabbit at 0.81 mg/kg, iv; format: ADME, organism-based, Oryctolagus cuniculus; conditions: in vivo
[3] = target: Cytochrome P450 3A4 (Homo sapiens, UniProt P08684); test: Inhibition of CYP3A4 in human liver microsome using testosterone as substrate; format: ADME, microsomes
Chain of Cytochrome P450 3A4 (P08684 whole entry): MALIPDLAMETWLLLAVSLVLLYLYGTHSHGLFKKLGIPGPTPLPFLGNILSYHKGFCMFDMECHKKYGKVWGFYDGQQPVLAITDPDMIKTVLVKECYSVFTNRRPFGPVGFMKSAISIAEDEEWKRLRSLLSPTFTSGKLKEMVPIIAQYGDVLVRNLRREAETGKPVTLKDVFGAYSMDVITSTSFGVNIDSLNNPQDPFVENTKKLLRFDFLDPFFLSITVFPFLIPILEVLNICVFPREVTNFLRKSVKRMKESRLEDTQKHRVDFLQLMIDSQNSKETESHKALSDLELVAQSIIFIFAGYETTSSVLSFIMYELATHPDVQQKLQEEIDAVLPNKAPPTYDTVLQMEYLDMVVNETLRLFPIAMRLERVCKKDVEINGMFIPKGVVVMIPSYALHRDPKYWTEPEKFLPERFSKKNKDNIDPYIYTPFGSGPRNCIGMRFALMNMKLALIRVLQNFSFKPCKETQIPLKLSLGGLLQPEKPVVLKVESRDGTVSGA

[4] = tested on: PC-3; test: Induction morphological changes in human PC-3 cells assessed as decrease in cell membrane stiffness measured immediately after MMAE addition; format: functional, cell-based; conditions: time hrs <=1
[5] = Ratio of AUC (t to infinity) to AUC (0 to infinity) in rat at 1.5 mg/kg, iv; format: ADME, organism-based; conditions: in vivo
[6] = tested on: CWR22R; test: Cytotoxicity against human 22Rv1 cells expressing PMSA measured using MTT assay; format: functional
[7] = Chronic toxicity in rat assessed as diarrhea at 10 microg/kg, iv; conditions: in vivo, 0.01 mg/kg, dose 10 µg/kg
[8] = target: T1, Cytochrome P450 1A2 (Homo sapiens, UniProt P05177); test: Inhibition of CYP1A2 in human liver microsome using phenacetin as substrate; format: ADME, microsomes
T1 sequence (P05177 whole entry): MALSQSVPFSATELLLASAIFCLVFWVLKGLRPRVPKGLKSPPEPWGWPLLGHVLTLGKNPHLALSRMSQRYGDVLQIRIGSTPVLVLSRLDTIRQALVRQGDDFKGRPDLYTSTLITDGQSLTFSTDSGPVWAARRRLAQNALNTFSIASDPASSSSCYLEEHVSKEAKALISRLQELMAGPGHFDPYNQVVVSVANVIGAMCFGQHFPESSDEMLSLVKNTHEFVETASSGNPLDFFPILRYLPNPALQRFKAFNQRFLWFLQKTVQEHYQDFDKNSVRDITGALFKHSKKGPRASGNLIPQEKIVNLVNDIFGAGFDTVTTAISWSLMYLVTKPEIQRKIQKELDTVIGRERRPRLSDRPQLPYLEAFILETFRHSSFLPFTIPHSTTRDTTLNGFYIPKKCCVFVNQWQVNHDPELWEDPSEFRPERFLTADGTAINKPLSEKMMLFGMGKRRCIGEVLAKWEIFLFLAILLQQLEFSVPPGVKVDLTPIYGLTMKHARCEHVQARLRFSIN

[9] = Toxicity in rat assessed as morphological changes in tongue at 150 to 225 microg/kg, iv; format: tissue-based; conditions: in vivo, dose 150-225 µg/kg
[10] = tested on: Salmonella typhimurium; test: Mutagenecity in Salmonella typhimurium TA98 without metabolic activation system at 1000 ug/ml by Ames test; format: toxicity, organism-based; conditions: salmonella enterica subsp. enterica serovar typhimurium; dose 1000 µg/ml
[11] = Chronic toxicity in rabbit assessed as increase in stomach weight at 5.4 microg/kg, iv; format: tissue-based, Oryctolagus cuniculus; conditions: in vivo, 0.0054 mg/kg, dose 5.4 µg/kg
[12] = tested on: Salmonella typhimurium; test: Mutagenecity in Salmonella typhimurium TA97 without metabolic activation system at 10000 ug/ml by Ames test; format: toxicity, organism-based; conditions: salmonella enterica subsp. enterica serovar typhimurium; dose 10000 µg/ml
[13] = tested on: Salmonella typhimurium; test: Mutagenecity in Salmonella typhimurium TA98 in presence of metabolic activation system at 100 ug/ml by Ames test; format: toxicity, organism-based; conditions: salmonella enterica subsp. enterica serovar typhimurium; dose 100 µg/ml
[14] = tested on: PC-3; test: Induction of intracellular reactive oxygen species production in human PC-3 cells incubated for 1 hr measured at CC50 concentration by amperometric method; format: functional, cell-based
[15] = Elimination rate constant in rabbit at 0.81 mg/kg, iv; format: ADME, organism-based, Oryctolagus cuniculus; conditions: in vivo
[16] = Toxicity in mouse assessed as change in body weight at 0.3 mg/kg, iv measured after 20 days; format: organism-based; conditions: in vivo, 480 h, time 20 day
[17] = tested on: Salmonella typhimurium; test: Mutagenecity in Salmonella typhimurium TA100 without metabolic activation system at 100 ug/ml by Ames test; format: toxicity, organism-based; conditions: salmonella enterica subsp. enterica serovar typhimurium; dose 100 µg/ml
[18] = Chronic toxicity in rat assessed as mortality rate at 10 microg/kg, iv dosed measured after 3 days; format: organism-based; conditions: in vivo, 0.01 mg/kg, dose 10 µg/kg, time 3 day, read-out: Activity
[19] = Toxicity in rabbit assessed as morphological changes in diameter of aorta at 81 to 122 microg/kg, iv; format: tissue-based, Oryctolagus cuniculus; conditions: in vivo, dose 81-122 µg/kg
[20] = Toxicity in rabbit assessed as morphological changes in brain ventricle at 81 to 122 microg/kg, iv; format: tissue-based, Oryctolagus cuniculus; conditions: in vivo, dose 81-122 µg/kg
[21] = AUC (0 to infinity) in rabbit at 0.81 mg/kg, iv; format: ADME, organism-based, Oryctolagus cuniculus; parameters: time infinity, route intravenous, dose 0.81 mg/kg; conditions: in vivo
[22] = Toxicity in rabbit assessed as morphological changes in adrenal gland at 81 to 122 microg/kg, iv; format: tissue-based, Oryctolagus cuniculus; conditions: in vivo, dose 81-122 µg/kg
[23] = Chronic toxicity in rabbit assessed as mortality rate at 5.4 microg/kg, iv dosed measured at day 4; format: organism-based, Oryctolagus cuniculus; conditions: in vivo, 0.0054 mg/kg, dose 5.4 µg/kg, read-out: Activity
[24] = target: Cytochrome P450 2C9 (Homo sapiens, UniProt P11712); test: Inhibition of CYP2C9 in human liver microsome using tolbutamide as substrate; format: ADME, microsomes
Chain of Cytochrome P450 2C9 (P11712 whole entry): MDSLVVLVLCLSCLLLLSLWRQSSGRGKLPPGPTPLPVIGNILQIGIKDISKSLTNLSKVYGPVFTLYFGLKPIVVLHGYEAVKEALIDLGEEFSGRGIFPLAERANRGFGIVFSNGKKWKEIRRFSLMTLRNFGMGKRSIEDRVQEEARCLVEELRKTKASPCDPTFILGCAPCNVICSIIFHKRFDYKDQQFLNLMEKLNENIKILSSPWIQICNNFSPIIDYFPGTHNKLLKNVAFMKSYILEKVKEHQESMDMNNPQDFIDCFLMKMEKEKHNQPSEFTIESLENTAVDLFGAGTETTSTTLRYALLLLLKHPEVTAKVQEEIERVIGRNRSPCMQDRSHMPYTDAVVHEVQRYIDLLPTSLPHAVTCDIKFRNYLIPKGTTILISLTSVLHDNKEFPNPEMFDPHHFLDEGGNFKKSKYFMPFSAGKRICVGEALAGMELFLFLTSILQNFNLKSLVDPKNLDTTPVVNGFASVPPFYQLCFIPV

[25] = Volume of distribution in rabbit at 0.81 mg/kg, iv; format: ADME, organism-based, Oryctolagus cuniculus; conditions: in vivo
[26] = tested on: CWR22R; test: Induction morphological changes in human 22Rv1 cells assessed as decrease in cell membrane stiffness measured upto 1 hr; format: functional, cell-based; conditions: time hrs <=1
[27] = Stability of the compound in mouse liver microsome; format: ADME; conditions: microsomes
[28] = Toxicity in rabbit assessed as morphological changes in kidney at 81 to 122 microg/kg, iv; format: tissue-based, Oryctolagus cuniculus; conditions: in vivo, dose 81-122 µg/kg
[29] = tested on: Salmonella typhimurium; test: Mutagenecity in Salmonella typhimurium TA98 without metabolic activation system at 10000 ug/ml by Ames test; format: toxicity, organism-based; conditions: salmonella enterica subsp. enterica serovar typhimurium; dose 10000 µg/ml
[30] = tested on: Salmonella typhimurium; test: Mutagenecity in Salmonella typhimurium TA97 in presence of metabolic activation system at 10 ug/ml by Ames test; format: toxicity, organism-based; conditions: salmonella enterica subsp. enterica serovar typhimurium; dose 10 µg/ml
[31] = Toxicity in rat assessed as morphological changes in spleen at 150 to 225 microg/kg, iv; format: tissue-based; conditions: in vivo, dose 150-225 µg/kg
[32] = Toxicity in rabbit assessed as local irritation in testes at 81 to 122 microg/kg, iv; parameters: species or system Oryctolagus cuniculus; conditions: in vivo, dose 81-122 µg/kg
[33] = tested on: CWR22R; test: Antitumor activity against human 22Rv1 cells xenografted in mouse assessed as tumour growth inhibition at 0.3 mg/kg, ip daily treated for 5 days after 18 days of tumor implantation measured upto 10 days; format: functional; conditions: 22Rv1, ip, 120 h, time 5 day, read-out: TGI
[34] = Toxicity in rabbit assessed as morphological changes in peritoneum at 81 to 122 microg/kg, iv; format: tissue-based, Oryctolagus cuniculus; conditions: in vivo, dose 81-122 µg/kg
[35] = Toxicity in rabbit assessed as pathological change in leydig cells in testes at 81 to 122 microg/kg, iv; format: cell-based, Oryctolagus cuniculus; conditions: in vivo, dose 81-122 µg/kg
[36] = tested on: Salmonella typhimurium; test: Mutagenecity in Salmonella typhimurium TA98 without metabolic activation system at 10 ug/ml by Ames test; format: toxicity, organism-based; conditions: salmonella enterica subsp. enterica serovar typhimurium; dose 10 µg/ml
[37] = tested on: Salmonella typhimurium; test: Mutagenecity in Salmonella typhimurium TA98 without metabolic activation system at 1 ug/ml by Ames test; format: toxicity, organism-based; conditions: salmonella enterica subsp. enterica serovar typhimurium; dose 1 µg/ml
[38] = tested on: Salmonella typhimurium; test: Mutagenecity in Salmonella typhimurium TA100 in presence of metabolic activation system at 10000 ug/ml by Ames test; format: toxicity, organism-based; conditions: salmonella enterica subsp. enterica serovar typhimurium; dose 10000 µg/ml
[39] = Toxicity in rat assessed as morphological changes in cerebral membrane at 150 to 225 microg/kg, iv; conditions: in vivo, dose 150-225 µg/kg

SMILES: CC[C@H](C)[C@@H]([C@@H](CC(=O)N1CCC[C@H]1[C@H](OC)[C@@H](C)C(=O)N[C@H](C)[C@@H](O)c1ccccc1)OC)N(C)C(=O)[C@@H](NC(=O)[C@H](C(C)C)N(C)C(=O)OCc1ccc(NC(=O)[C@H](CCCNC(N)=O)NC(=O)[C@@H](NC(=O)CCCc2cn(CCCNC(=O)[C@H](Cc3ccc(O)cc3)NC(=O)[C@H](Cc3ccccc3)NC(=O)CCC(=O)NCCCCCC(=O)N(CCCC[C@H](NC(=O)N[C@@H](CCC(=O)O)C(=O)O)C(=O)O)Cc3cccc(Cl)c3)nn2)C(C)C)cc1)C(C)C ({GluureaLys(ε-3-ClBenzyl)-Ahx-Suc}-FY[X1]V[Cit][PABC][NMeV]V[Dil][Dolaproine]-X2)
- Activity [1]: Non-Toxic
- clearance [2]: 0.4 mL/min/kg
- IC50 [3]: 11.2 µM
- Activity [4]: inactive
- Ratio [5]: 14%
- CC50 [6]: 0.029 µM
- Activity [7]: Toxic
- IC50 [8]: > 25 µM
- Activity [9]: Non-Toxic
- Activity [10]: Non-Toxic
- Activity [11]: Toxic
- Activity [12]: Non-Toxic
- Activity [13]: Non-Toxic
- Activity [14]: Active
- k el [15]: 4.72e-05 s⁻¹
- Activity [16]: Non-Toxic
- Activity [17]: Non-Toxic
- mortality at 72 h [18]: 90%
- Activity [19]: Non-Toxic
- Activity [20]: Non-Toxic
- AUC(0-inf) [21]: 35000 ng·h/mL
- Activity [22]: Non-Toxic
- mortality at 4 day [23]: 100%
- IC50 [24]: > 25 µM
- Vd [25]: 0.158 L/kg
- Activity [26]: Active
- Stability [27]: Unstable
- Activity [28]: Non-Toxic
- Activity [29]: Non-Toxic
- Activity [30]: Non-Toxic
- Activity [31]: Non-Toxic
- Activity [32]: Non-Toxic
- inhibition in vivo at 0.3 mg/kg [33]: 70%
- Activity [34]: Non-Toxic
- Activity [35]: Non-Toxic
- Activity [36]: Non-Toxic
- Activity [37]: Non-Toxic
- Activity [38]: Non-Toxic
- Activity [39]: Non-Toxic
